Among the data in patent publication US20240279207A1, “SUBSTITUTED ACYL SULFONAMIDES FOR TREATING CANCER” (The Broad Institute, Inc., priority 2020, published 2024) are IC50 values, retold here.

SMILES strings stand for the structures.

For experiment [1], the target named is T1, Recombinant human His-tagged Kat6a protein (amino acids 194-810) (Homo sapiens, UniProt Q92794).
T1 construct: Kat6a protein (amino acids 194-810); His
The experiment is described as follows: Kat6a activity assay (TR-FRET, acetylation of Histone-H4-derived peptide). To be noted: 60 mins at 22° C., 220 nM H4 peptide, 600 nM Acetyl Coenzyme A, read-out: KAT6A - DPF/HAT domain IC50 [mol/l] (arithmetic mean). The experiment is classed as biochemical. (Time-resolved FRET reads energy transfer from a long-lived donor to a nearby acceptor.)

The test system of experiment [2] is ESR1 transcription in MVLN cells. The experiment is described as follows: MVLN reporter assay: repression of ESR1 transcription (luciferase signal). The experiment is classed as cell-based. To be noted: Homo sapiens, MVLN, 24 h, luciferase signal after 24 h, read-out: MVLN reporter assay, IC50 [M] (arithmetic mean). The essentials: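 To control for cell loss, Alamar Blue (2 h, 530/590 nm) precedes the 24 h luciferase measurement. The reporter is an ERE from the Xenopus vitellogenin A2 gene driving luciferase, stably transfected into ER-expressing MVLN cells; duplicate samples.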
(A reporter such as luciferase makes a cellular process visible.)

T1 sequence (Q92794 194-810): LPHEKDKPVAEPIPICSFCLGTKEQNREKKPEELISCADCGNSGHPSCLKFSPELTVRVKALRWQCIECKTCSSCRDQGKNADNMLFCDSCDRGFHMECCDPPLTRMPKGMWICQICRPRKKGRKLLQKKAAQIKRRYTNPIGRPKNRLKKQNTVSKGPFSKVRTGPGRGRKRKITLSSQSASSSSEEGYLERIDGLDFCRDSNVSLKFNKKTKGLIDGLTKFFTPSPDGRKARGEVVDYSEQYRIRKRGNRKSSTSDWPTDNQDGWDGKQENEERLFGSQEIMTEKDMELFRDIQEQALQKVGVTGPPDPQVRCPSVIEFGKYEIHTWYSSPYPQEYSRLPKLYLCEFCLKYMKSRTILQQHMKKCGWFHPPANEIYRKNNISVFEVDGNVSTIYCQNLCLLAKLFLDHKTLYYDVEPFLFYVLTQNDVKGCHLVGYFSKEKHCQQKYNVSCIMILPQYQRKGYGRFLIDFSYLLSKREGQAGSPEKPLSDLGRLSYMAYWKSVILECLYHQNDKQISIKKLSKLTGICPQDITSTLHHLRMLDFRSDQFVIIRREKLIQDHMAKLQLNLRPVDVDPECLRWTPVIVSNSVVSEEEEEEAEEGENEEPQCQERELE

For `Cc1nc(N)c(S(=O)(=O)NC(=O)c2cc3c(F)cc(N4CCC4)cc3o2)c(C)c1Cl` [Example 104, N-(2-amino-5-chloro-4,6-dimethylpyridine-3-sulfonyl)-6-(azetidin-1-yl)-4-fluoro-1-benzofuran-2-carboxamide], the IC50 was determined as 793 nM in experiment [1] and 1.05e-05 M in experiment [2].

As to `O=C(NS(=O)(=O)c1ccc(O)c2ccccc12)c1cc2c(F)cc(N3CCC3)cc2o1` [Example 106, 6-(Azetidin-1-yl)-4-fluoro-N-(4-hydroxynaphthalene-1-sulfonyl)-1-benzofuran-2-carboxamide], the IC50 was more than 20000 nM in experiment [1] and more than 2e-05 M in experiment [2].

As to `O=C(NS(=O)(=O)c1cccc2c1CCCC2)c1cc2c(F)cc(N3CC(F)C3)cc2o1` [Example 108, 4-Fluoro-6-(3-fluoroazetidin-1-yl)-N-(5,6,7,8-tetrahydronaphthalene-1-sulfonyl)-1-benzofuran-2-carboxamide], the IC50 in experiment [1] was 68.6 nM; in experiment [2], 1.29e-07 M.

As to `O=C(NS(=O)(=O)c1cccc2c1OCCO2)c1cc2c(F)cc(N3CC(F)C3)cc2o1` [Example 109, N-(2,3-dihydro-1,4-benzodioxine-5-sulfonyl)-4-fluoro-6-(3-fluoroazetidin-1-yl)-1-benzofuran-2-carboxamide], the IC50 in experiment [1] came to 172 nM; in experiment [2], 5.92e-07 M.

Turning to `O=C(NS(=O)(=O)c1cccc2c1NCCC2)c1cc2c(F)cc(N3CC(F)C3)cc2o1` [Example 110, 4-Fluoro-6-(3-fluoroazetidin-1-yl)-N-(1,2,3,4-tetrahydroquinoline-8-sulfonyl)-1-benzofuran-2-carboxamide], the IC50 turned out to be 208 nM in experiment [1] and 5.47e-07 M in experiment [2].

On to `O=C(NS(=O)(=O)c1ccnc2ccccc12)c1cc2c(F)cc(N3CC(F)C3)cc2o1` [Example 111, 4-Fluoro-6-(3-fluoroazetidin-1-yl)-N-(quinoline-4-sulfonyl)-1-benzofuran-2-carboxamide], for which the IC50 was 3080 nM in experiment [1] and more than 2e-05 M in experiment [2].

Regarding `CN1CCc2c(cccc2S(=O)(=O)NC(=O)c2cc3c(F)cc(N4CC(F)C4)cc3o2)C1` [Example 112, 4-Fluoro-6-(3-fluoroazetidin-1-yl)-N-(2-methyl-1,2,3,4-tetrahydroisoquinoline-5-sulfonyl)-1-benzofuran-2-carboxamide], the IC50 was 5210 nM in experiment [1] and more than 2e-05 M in experiment [2].

For the molecule `O=C(NS(=O)(=O)c1ccccc1C(Cl)Cl)c1cc2c(F)cc(N3CC(F)C3)cc2o1` [Example 114, N-[2-(dichloromethyl)benzene-1-sulfonyl]-4-fluoro-6-(3-fluoroazetidin-1-yl)-1-benzofuran-2-carboxamide], the figures for the IC50 in experiment [1] and in experiment [2] were 406 nM and more than 2e-05 M, respectively.

As to `Cc1nc(-c2ccc(S(=O)(=O)NC(=O)c3cc4c(F)cc(N5CC(F)C5)cc4o3)cc2)cs1` [Example 115, 4-Fluoro-6-(3-fluoroazetidin-1-yl)-N-[4-(2-methyl-1,3-thiazol-4-yl)benzene-1-sulfonyl]-1-benzofuran-2-carboxamide], the IC50 in experiment [1] turned out to be 563 nM; in experiment [2] it was 3.81e-06 M.

With `CCOc1ccccc1S(=O)(=O)NC(=O)c1cc2ccc(N3CC(C(F)(F)F)C3)cc2o1` [Example 117, N-(2-Ethoxybenzene-1-sulfonyl)-6-[3-(trifluoromethyl)azetidin-1-yl]-1-benzofuran-2-carboxamide], the figures for the IC50 in experiment [1] and in experiment [2] were 12900 nM and 1.73e-05 M, respectively.

Turning to `CCOc1ccccc1S(=O)(=O)NC(=O)c1cc2ccc(N3CC(OCC)C3)cc2o1` [Example 121, 6-(3-Ethoxyazetidin-1-yl)-N-(2-ethoxybenzene-1-sulfonyl)-1-benzofuran-2-carboxamide], the IC50 is 13400 nM in experiment [1] and more than 2e-05 M in experiment [2].

For `CCOc1ccccc1S(=O)(=O)NC(=O)c1cc2ccc(N3CC4(CCC4)C3)cc2o1` [Example 123, 6-(2-Azaspiro[3.3]heptan-2-yl)-N-(2-ethoxybenzene-1-sulfonyl)-1-benzofuran-2-carboxamide], the IC50 is more than 20000 nM in experiment [1] and more than 2e-05 M in experiment [2].

Regarding `COc1ccc(N2CCOCC2)cc1S(=O)(=O)NC(=O)c1cc2c(F)cc(N3CCC3)cc2o1` [Example 137, 6-(Azetidin-1-yl)-4-fluoro-N-[2-methoxy-5-(morpholin-4-yl)benzene-1-sulfonyl]-1-benzofuran-2-carboxamide], the IC50 came to 26.2 nM in experiment [1] and 1.74e-07 M in experiment [2].

For `COc1ccc(Br)cc1S(=O)(=O)NC(=O)c1cc2c(F)cc(N3CCC3)cc2o1` [Example 139, 6-(azetidin-1-yl)-N-(5-bromo-2-methoxybenzene-1-sulfonyl)-4-fluoro-1-benzofuran-2-carboxamide], the IC50 in experiment [1] came to 41.3 nM; in experiment [2] it was 2.36e-07 M.

With `O=C(NS(=O)(=O)c1cccc2c1S(=O)(=O)CCC2)c1cc2c(F)cc(N3CCC3)cc2o1` [Example 141, 6-(Azetidin-1-yl)-N-(1,1-dioxo-1,2,3,4-tetrahydro-1-benzothiopyran-8-sulfonyl)-4-fluoro-1-benzofuran-2-carboxamide], the IC50 came out at 139 nM in experiment [1] and 5.12e-07 M in experiment [2].

In the case of `O=C(NS(=O)(=O)c1c(Cl)ccc2c1OC(F)(F)O2)c1cc2c(F)cc(N3CCC3)cc2o1` [Example 142, 6-(Azetidin-1-yl)-N-(5-chloro-2,2-difluoro-2H-1,3-benzodioxole-4-sulfonyl)-4-fluoro-1-benzofuran-2-carboxamide], the IC50 in experiment [1] was 149 nM; in experiment [2], 1.2e-06 M.

For the molecule `CCn1nc(S(=O)(=O)NC(=O)c2cc3c(F)cc(N4CCC4)cc3o2)c2cccnc21` [Example 143, 6-(Azetidin-1-yl)-N-(1-ethyl-1H-pyrazolo[3,4-b]pyridine-3-sulfonyl)-4-fluoro-1-benzofuran-2-carboxamide], the IC50 in experiment [1] came to 226 nM; in experiment [2], 4.61e-06 M.

Take `Cn1nc(S(=O)(=O)NC(=O)c2cc3c(F)cc(N4CCC4)cc3o2)c2ccc(C(F)(F)F)nc21` [Example 144, 6-(Azetidin-1-yl)-4-fluoro-N-[1-methyl-6-(trifluoromethyl)-1H-pyrazolo[3,4-b]pyridine-3-sulfonyl]-1-benzofuran-2-carboxamide]: the IC50 is 548 nM in experiment [1] and 7.93e-06 M in experiment [2].

With `Cc1ccc2c(S(=O)(=O)NC(=O)c3cc4c(F)cc(N5CCC5)cc4o3)nn(C)c2n1` [Example 145, 6-(Azetidin-1-yl)-N-(1,6-dimethyl-1H-pyrazolo[3,4-b]pyridine-3-sulfonyl)-4-fluoro-1-benzofuran-2-carboxamide], the IC50 worked out at 402 nM in experiment [1] and 8.4e-06 M in experiment [2].

As to `Cc1ccnc2c1c(S(=O)(=O)NC(=O)c1cc3c(F)cc(N4CCC4)cc3o1)nn2C` [Example 146, 6-(Azetidin-1-yl)-N-(1,4-dimethyl-1H-pyrazolo[3,4-b]pyridine-3-sulfonyl)-4-fluoro-1-benzofuran-2-carboxamide], the IC50 came out at 290 nM in experiment [1] and 2.83e-06 M in experiment [2].

On to `CCCc1ccc2nc(Cl)c(S(=O)(=O)NC(=O)c3cc4c(F)cc(N5CCC5)cc4o3)n2n1` [Example 147, 6-(Azetidin-1-yl)-N-(2-chloro-6-propylimidazo[1,2-b]pyridazine-3-sulfonyl)-4-fluoro-1-benzofuran-2-carboxamide], for which the IC50 turned out to be 91.5 nM in experiment [1] and 2.98e-06 M in experiment [2].

As to `CCSc1nc2ccccn2c1S(=O)(=O)NC(=O)c1cc2c(F)cc(N3CCC3)cc2o1` [Example 148, 6-(Azetidin-1-yl)-N-[2-(ethylsulfanyl)imidazo[1,2-a]pyridine-3-sulfonyl]-4-fluoro-1-benzofuran-2-carboxamide], the IC50 in experiment [1] was determined as 274 nM; in experiment [2], 3.14e-06 M.

Consider `CSc1nc2ccccn2c1S(=O)(=O)NC(=O)c1cc2c(F)cc(N3CCC3)cc2o1` [Example 149, 6-(Azetidin-1-yl)-4-fluoro-N-[2-(methylsulfanyl)imidazo[1,2-a]pyridine-3-sulfonyl]-1-benzofuran-2-carboxamide], for which the figures for the IC50 in experiment [1] and in experiment [2] were 261 nM and 3.66e-06 M, respectively.

On to `COc1cc(C)ccc1S(=O)(=O)NC(=O)c1cc2c(F)cc(N3CC(F)C3)cc2o1` [Example 158, 4-Fluoro-6-(3-fluoroazetidin-1-yl)-N-(2-methoxy-4-methylbenzene-1-sulfonyl)-1-benzofuran-2-carboxamide], for which the values for the IC50 in experiment [1] and in experiment [2] were 25.7 nM and 1.05e-07 M, respectively.

Regarding `O=C(NS(=O)(=O)c1cccc2c1OC(F)(F)C(F)(F)O2)c1cc2c(F)cc(N3CC(F)C3)cc2o1` [Example 159, 4-Fluoro-6-(3-fluoroazetidin-1-yl)-N-(2,2,3,3-tetrafluoro-2,3-dihydro-1,4-benzodioxine-5-sulfonyl)-1-benzofuran-2-carboxamide], the IC50 stood at 34.3 nM in experiment [1] and 7.45e-07 M in experiment [2].

`CC(C)N(C)c1cc(F)c(S(=O)(=O)NC(=O)c2cc3c(F)cc(N4CC(F)C4)cc3o2)c(F)c1` [Example 164, N-{2,6-difluoro-4-[methyl(propan-2-yl)amino]benzene-1-sulfonyl}-4-fluoro-6-(3-fluoroazetidin-1-yl)-1-benzofuran-2-carboxamide]: the IC50 was determined as 251 nM in experiment [1] and 2.34e-06 M in experiment [2].

Turning to `CC(C)N(C)c1cc(F)cc(F)c1S(=O)(=O)NC(=O)c1cc2c(F)cc(N3CC(F)C3)cc2o1` [Example 165, N-{2,4-difluoro-6-[methyl(propan-2-yl)amino]benzene-1-sulfonyl}-4-fluoro-6-(3-fluoroazetidin-1-yl)-1-benzofuran-2-carboxamide], the IC50 in experiment [1] came out at 318 nM; in experiment [2] it was 8.64e-07 M.

Take `CC(C)N(C)c1ccc(S(=O)(=O)NC(=O)c2cc3c(F)cc(N4CC(F)C4)cc3o2)c(F)c1F` [Example 166, N-{2,3-difluoro-4-[methyl(propan-2-yl)amino]benzene-1-sulfonyl}-4-fluoro-6-(3-fluoroazetidin-1-yl)-1-benzofuran-2-carboxamide]: the IC50 is 362 nM in experiment [1] and 7.22e-06 M in experiment [2].
